Test results published in ChEMBL document CHEMBL1150826, “Antibacterial diterpenes from the roots of Salvia blepharochlaena” (2001).
In brackets after ≈: the same amount, converted by molar mass. Activity calls are given as the source filed them. The rule behind the calls is not given here.

Legend:
Bacillus subtilis [1] = test: Antimicrobial activity against Bacillus subtilis ATCC 6633 by disc-diffusion method; type: functional
Staphylococcus aureus [2] = test: Antimicrobial activity against Staphylococcus aureus ATCC 6538 by tube dilution method; type: functional
[3] = tested on: Staphylococcus epidermidis; test: Antimicrobial activity against Staphylococcus epidermidis ATCC 12228 by tube dilution method; type: functional
Bacillus subtilis [4] = test: Antimicrobial activity against Bacillus subtilis ATCC 6633 by tube dilution method; type: functional
Staphylococcus aureus [5] = test: Antimicrobial activity against Staphylococcus aureus ATCC 6538 by disc-diffusion method; type: functional
[6] = tested on: Staphylococcus epidermidis; test: Antimicrobial activity against Staphylococcus epidermidis ATCC 12228 by disc-diffusion method; type: functional
[7] = tested on: Mycobacterium tuberculosis; test: Antimycobacterial activity against Mycobacterium tuberculosis by broth microdilution method; type: functional, organism-based
Escherichia coli = test: Antimicrobial activity against Escherichia coli by disc-diffusion method; type: functional, organism-based
Proteus mirabilis = test: Antimicrobial activity against Proteus mirabilis by disc-diffusion method; type: functional, organism-based
Klebsiella pneumoniae = test: Antimicrobial activity against Klebsiella pneumoniae by disc-diffusion method; type: functional, organism-based
Pseudomonas aeruginosa = test: Antimicrobial activity against Pseudomonas aeruginosa by disc-diffusion method; type: functional, organism-based
Candida albicans = test: Antimicrobial activity against Candida albicans by disc-diffusion method; type: functional, organism-based
Enterococcus faecalis [8] = test: Antimicrobial activity against Enterococcus faecalis ATCC 29212 by tube dilution method; type: functional
Enterococcus faecalis [9] = test: Antimicrobial activity against Enterococcus faecalis ATCC 29212 by disc-diffusion method; type: functional

Structure (SMILES) | inhibition zone (IZ) (Bacillus subtilis [1]) [mm] | MIC (Staphylococcus aureus [2]) [µg/mL] | MIC [3] [µg/mL] | MIC (Bacillus subtilis [4]) [µg/mL] | inhibition zone (IZ) (Staphylococcus aureus [5]) | inhibition zone (IZ) [6] | Activity [7] | inhibition zone (IZ) (Escherichia coli) | inhibition zone (IZ) (Proteus mirabilis) | inhibition zone (IZ) (Klebsiella pneumoniae) | inhibition zone (IZ) (Pseudomonas aeruginosa) | inhibition zone (IZ) (Candida albicans) | MIC (Enterococcus faecalis [8]) [µg/mL] | inhibition zone (IZ) (Enterococcus faecalis [9])
CC(C)c1cc2c(cc1O)[C@@]1(C)CCCC(C)(C)[C@@H]1CC2 [FERRUGINOL] | >7 | > 250 | > 250 | > 250 | >7 mm | >7 mm | – | – | – | – | – | – | – | –
COc1cc2c(ccc3c(C)c(C)ccc32)cc1C(C)C | – | – | – | – | – | – | Active | – | – | – | – | – | – | –
CC(C)C1=C(O)C(=O)C2=C(C1=O)[C@H](O)C[C@H]1C(C)(C)CCC[C@]21C [HORMINONE] | >7 | 6.5 (≈ 19.6 µM) | 1.5 (≈ 4.51 µM) | 1.5 (≈ 4.51 µM) | >7 mm | >7 mm | – | inactive | inactive | inactive | inactive | inactive | 14 (≈ 42.1 µM) | >7 mm
Cc1c(O)cc2c3c(ccc2c1C)C=C(C(C)C)C(=O)C3=O | – | – | – | – | – | – | Active | – | – | – | – | – | – | –
COc1cc2c(cc1C(C)C)CC[C@H]1C(C)(C)CCC[C@]21C(=O)O | >7 | – | – | 6.5 (≈ 19.7 µM) | inactive | inactive | – | inactive | inactive | inactive | inactive | inactive | – | inactive
COc1cc2c3c(ccc2c(C)c1C)C=C(C(C)C)C(=O)C3=O | – | – | – | – | – | – | Active | – | – | – | – | – | – | –
CC(=O)O[C@@H]1C[C@H]2C(C)(C)CCC[C@]2(C)C2=C1C(=O)C(C(C)C)=C(O)C2=O | >7 | 10 (≈ 26.7 µM) | 6 (≈ 16 µM) | 3 (≈ 8.01 µM) | >7 mm | >7 mm | – | inactive | inactive | inactive | inactive | inactive | – | inactive
